Target: T1, CAMKII gamma (Homo sapiens, UniProt Q13555)
T1 construct: purchased Promega V3531
Test: CAMKII gamma kinase activity, ADP Glo (Promega)
Type: biochemical
Conditions: 10 uM ATP
Method: An enzymatic study was conducted to evaluate the inhibition of CAMKII gamma by ES-3000 (Tetrandrine). CAMKII gamma kinase activity was measured using […] purchased from Promega following the Promega protocol. CAMKII enzyme system purchased from Promega (V3531). ADP Glo was used for detection. Assay optimized for linearity of protein and time. Conditions for inhibitor screening 25 ng CAMKII, 20 min. incubations, inhibitor or DMSO (5%) at RT in 20 uL total volume. Inhibitor, ATP (10 or 50 uM), substrates and buffer added to tubes and reactions started with enzyme. […] Reactions terminated at 20 min. by adding ADP Glo reaction following manufactures instructions. All reactions were done in duplicate. Calculations of percent (%) inhibition determined by dividing the mean activity at each condition by the mean of the DMSO control times 100.

T1 sequence (Q13555 whole entry): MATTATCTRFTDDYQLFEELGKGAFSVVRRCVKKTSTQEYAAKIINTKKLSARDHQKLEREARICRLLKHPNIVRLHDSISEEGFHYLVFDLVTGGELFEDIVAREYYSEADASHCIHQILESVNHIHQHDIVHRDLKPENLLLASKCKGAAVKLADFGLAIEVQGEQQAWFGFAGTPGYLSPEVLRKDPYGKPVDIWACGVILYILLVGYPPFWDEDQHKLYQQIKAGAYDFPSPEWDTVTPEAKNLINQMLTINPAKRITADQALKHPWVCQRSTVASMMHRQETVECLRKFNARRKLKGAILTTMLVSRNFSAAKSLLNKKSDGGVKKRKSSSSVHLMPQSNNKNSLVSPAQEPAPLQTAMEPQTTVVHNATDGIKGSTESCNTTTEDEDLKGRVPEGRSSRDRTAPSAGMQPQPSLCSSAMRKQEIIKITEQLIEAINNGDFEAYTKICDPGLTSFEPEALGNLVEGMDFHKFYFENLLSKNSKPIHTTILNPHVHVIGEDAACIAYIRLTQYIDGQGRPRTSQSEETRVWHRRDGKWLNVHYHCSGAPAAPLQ

% inhibition (30 uM): 37%
inhibition at 30 µM (30 uM): 36.7%
kinase activity, % of DMSO control (30 uM): 63%
% inhibition (100 uM): 47%
inhibition at 100 µM (100 uM): 47.1%
kinase activity, % of DMSO control (100 uM): 53%
% inhibition (250 uM): 46%
inhibition at 250 µM (250 uM): 46.3%
kinase activity, % of DMSO control (250 uM): 54%
Structure (SMILES): COc1cc2c3cc1Oc1c(OC)c(OC)cc4c1[C@@H](Cc1ccc(O)c(c1)Oc1ccc(cc1)C[C@@H]3N(C)CC2)N(C)CC4 [berbamine, reference compound]

Reference: patent US20240307372A1, “COMPOSITIONS AND METHODS TO IMPROVE BENEFIT OF SUBOPTIMALLY ADMINISTERED THERAPEUCTICS FOR THE TREATMENT OF BENIGN AND NEOPLASTIC DISEASES, INFECTIONS, INFLAMMATORY, METABOLIC AND IMMUNOLOGIAL DISEASES” (priority 2023, published 2024)
